Experimental data as given in ChEMBL document CHEMBL1201862, “PubChem BioAssay data set” (2004).
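48-hour exposure; five concentrations; linearly interpolated endpoints. Here, GI50 denotes the concentration required for 50% inhibition of growth.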 Calls of active or inactive are those of the source. Rule as the data show it: active = GI50 up to about 1.1 µM and inactive = higher.

How the values were obtained:
Assay in all cases: NCI tumour cell line growth inhibition, 48 h
A549 = system: A549
ACHN = system: ACHN
CCRF-CEM = system: CCRF-CEM
COLO 205 = system: COLO 205
DLD-1 = system: DLD-1
HCC 2998 = system: HCC 2998
HCT-116 = system: HCT-116
HL-60 = system: HL-60
HOP-62 = system: HOP-62
HOP-92 = system: HOP-92
HT-29 = system: HT-29
IGROV-1 = system: IGROV-1
K562 = system: K562
KM12 = system: KM12
LXFL 529 = system: LXFL 529
M19-MEL = system: M19-MEL
MOLT-4 = system: MOLT-4
NCI-H226 = system: NCI-H226
NCI-H23 = system: NCI-H23
NCI-H460 = system: NCI-H460
NCI-H522 = system: NCI-H522
OVCAR-3 = system: OVCAR-3
OVCAR-5 = system: OVCAR-5
OVCAR-8 = system: OVCAR-8
RPMI-8226 = system: RPMI-8226
SF-268 = system: SF-268
SF-295 = system: SF-295
SF-539 = system: SF-539
SK-MEL-28 = system: SK-MEL-28
SK-MEL-5 = system: SK-MEL-5
SK-OV-3 = system: SK-OV-3
SNB-19 = system: SNB-19
SNB-75 = system: SNB-75
SR = system: SR
SW-620 = system: SW-620
TK-10 = system: TK-10
U-251 = system: U-251
UACC-257 = system: UACC-257
UACC-62 = system: UACC-62
UO-31 = system: UO-31
786-0 = system: 786-0
A498 = system: A498
CAKI-1 = system: CAKI-1
DMS-114 = system: DMS-114
DMS-273 = system: DMS-273
EKVX = system: EKVX
HCT-15 = system: HCT-15
KM-20L2 = system: KM-20L2
LOX IMVI = system: LOX IMVI
M14 = system: M14
Malme-3M = system: Malme-3M
OVCAR-4 = system: OVCAR-4
RXF 393 = system: RXF 393
SK-MEL-2 = system: SK-MEL-2
SN12C = system: SN12C
SNB-78 = system: SNB-78
BT-549 = system: BT-549
DU-145 = system: DU-145
Hs-578T = system: Hs-578T
MCF7 = system: MCF7
MDA-MB-231 = system: MDA-MB-231
MDA-MB-435 = system: MDA-MB-435
MDA-N = system: MDA-N
NCI/ADR-RES = system: NCI/ADR-RES
PC-3 = system: PC-3
T47D = system: T47D

## COc1ccc(/C=N/n2cnc3c(sc(=S)n3-c3ccccc3)c2=O)cc1
A549
  GI50: 45.5 µM (inactive)
ACHN
  GI50: 27.6 µM (inactive)
CCRF-CEM
  GI50: 18.3 µM (inactive)
COLO 205
  GI50: 50.8 µM (inactive)
DLD-1
  GI50: 26.8 µM (inactive)
HCC 2998
  GI50: 23.9 µM (inactive)
HCT-116
  GI50: > 100 µM (inactive)
HL-60
  GI50: 12.5 µM (inactive)
HOP-62
  GI50: 12.2 µM (inactive)
HOP-92
  GI50: 4.43 µM (inactive)
HT-29
  GI50: 24.5 µM (inactive)
IGROV-1
  GI50: 37 µM (inactive)
K562
  GI50: 15.8 µM (inactive)
KM12
  GI50: > 100 µM (inactive)
LXFL 529
  GI50: 16.9 µM (inactive)
M19-MEL
  GI50: 33.2 µM (inactive)
MOLT-4
  GI50: 20.4 µM (inactive)
NCI-H226
  GI50: 18.3 µM (inactive)
NCI-H23
  GI50: 23.6 µM (inactive)
NCI-H460
  GI50: 35.8 µM (inactive)
NCI-H522
  GI50: 13.5 µM (inactive)
OVCAR-3
  GI50: 14.9 µM (inactive)
OVCAR-5
  GI50: 1.68 µM (inactive)
OVCAR-8
  GI50: 26.5 µM (inactive)
RPMI-8226
  GI50: 16.4 µM (inactive)
SF-268
  GI50: 6.28 µM (inactive)
SF-295
  GI50: 10 µM (inactive)
SF-539
  GI50: 12.8 µM (inactive)
SK-MEL-28
  GI50: 13.2 µM (inactive)
SK-MEL-5
  GI50: 24.7 µM (inactive)
SK-OV-3
  GI50: 13.2 µM (inactive)
SNB-19
  GI50: 17.7 µM (inactive)
SNB-75
  GI50: 2.47 µM (inactive)
SR
  GI50: 29.2 µM (inactive)
SW-620
  GI50: 99.3 µM (inactive)
TK-10
  GI50: 25.3 µM (inactive)
U-251
  GI50: 23.2 µM (inactive)
UACC-257
  GI50: 23.6 µM (inactive)
UACC-62
  GI50: 16.7 µM (inactive)
UO-31
  GI50: 40.4 µM (inactive)

## O=c1c2cc(Br)ccc2nc(-c2ccccc2)n1NCC1(O)OCC(O)C(O)C1O (stereo not given)
786-0
  GI50: > 100 µM (inactive)
A498
  GI50: > 100 µM (inactive)
A549
  GI50: > 100 µM (inactive)
ACHN
  GI50: > 100 µM (inactive)
CAKI-1
  GI50: > 100 µM (inactive)
CCRF-CEM
  GI50: 40.2 µM (inactive)
COLO 205
  GI50: > 100 µM (inactive)
DMS-114
  GI50: > 100 µM (inactive)
DMS-273
  GI50: > 100 µM (inactive)
EKVX
  GI50: > 100 µM (inactive)
HCT-116
  GI50: > 100 µM (inactive)
HCT-15
  GI50: > 100 µM
HL-60
  GI50: 26.2 µM (inactive)
HOP-62
  GI50: > 100 µM (inactive)
HT-29
  GI50: > 100 µM (inactive)
K562
  GI50: > 100 µM (inactive)
KM-20L2
  GI50: > 100 µM (inactive)
KM12
  GI50: > 100 µM (inactive)
LOX IMVI
  GI50: > 100 µM (inactive)
LXFL 529
  GI50: 92 µM (inactive)
M14
  GI50: > 100 µM (inactive)
M19-MEL
  GI50: > 100 µM (inactive)
MOLT-4
  GI50: 72.8 µM (inactive)
Malme-3M
  GI50: > 100 µM (inactive)
NCI-H226
  GI50: > 100 µM (inactive)
NCI-H23
  GI50: > 100 µM (inactive)
NCI-H460
  GI50: > 100 µM (inactive)
NCI-H522
  GI50: > 100 µM (inactive)
OVCAR-3
  GI50: 81.8 µM (inactive)
OVCAR-4
  GI50: 61.8 µM (inactive)
OVCAR-5
  GI50: > 100 µM (inactive)
OVCAR-8
  GI50: > 100 µM (inactive)
RPMI-8226
  GI50: > 100 µM (inactive)
RXF 393
  GI50: > 100 µM (inactive)
SF-268
  GI50: > 100 µM (inactive)
SF-295
  GI50: > 100 µM (inactive)
SF-539
  GI50: > 100 µM (inactive)
SK-MEL-28
  GI50: > 100 µM (inactive)
SK-MEL-2
  GI50: > 100 µM (inactive)
SK-MEL-5
  GI50: > 100 µM (inactive)
SK-OV-3
  GI50: > 100 µM (inactive)
SN12C
  GI50: > 100 µM (inactive)
SNB-19
  GI50: > 100 µM (inactive)
SNB-75
  GI50: > 100 µM (inactive)
SNB-78
  GI50: > 100 µM (inactive)
SR
  GI50: 48.8 µM (inactive)
SW-620
  GI50: > 100 µM (inactive)
U-251
  GI50: > 100 µM (inactive)
UACC-257
  GI50: > 100 µM (inactive)
UACC-62
  GI50: > 100 µM (inactive)
UO-31
  GI50: > 100 µM (inactive)

## Cc1ccc2c(c1)nc1n2C(N)=Nc2ccccc2S1
786-0
  GI50: 52.7 µM (inactive)
A498
  GI50: 49.1 µM (inactive)
A549
  GI50: 25.4 µM (inactive)
ACHN
  GI50: 59.7 µM (inactive)
BT-549
  GI50: > 100 µM (inactive)
CAKI-1
  GI50: > 100 µM (inactive)
CCRF-CEM
  GI50: 2.65 µM (inactive)
COLO 205
  GI50: 14.8 µM (inactive)
DU-145
  GI50: > 69.8 µM (inactive)
EKVX
  GI50: 36.4 µM (inactive)
HCC 2998
  GI50: 51.3 µM (inactive)
HCT-116
  GI50: 4.4 µM (inactive)
HCT-15
  GI50: 24.2 µM
HL-60
  GI50: 2.67 µM (inactive)
HOP-62
  GI50: > 83.4 µM (inactive)
HOP-92
  GI50: > 40.6 µM (inactive)
HT-29
  GI50: 15.8 µM (inactive)
Hs-578T
  GI50: > 73.5 µM (inactive)
IGROV-1
  GI50: 6.4 µM (inactive)
K562
  GI50: 5.79 µM (inactive)
KM12
  GI50: 43.8 µM (inactive)
LOX IMVI
  GI50: 3.51 µM (inactive)
M14
  GI50: 3.44 µM (inactive)
MCF7
  GI50: > 27.2 µM (inactive)
MDA-MB-231
  GI50: > 21 µM (inactive)
MDA-MB-435
  GI50: 71.1 µM (inactive)
MDA-N
  GI50: 5.78 µM (inactive)
MOLT-4
  GI50: 4.66 µM (inactive)
Malme-3M
  GI50: > 100 µM (inactive)
NCI-H226
  GI50: 30.3 µM (inactive)
NCI-H23
  GI50: 28.7 µM (inactive)
NCI-H460
  GI50: 5.92 µM (inactive)
NCI-H522
  GI50: > 63.2 µM (inactive)
NCI/ADR-RES
  GI50: 43.4 µM (inactive)
OVCAR-3
  GI50: 43.3 µM (inactive)
OVCAR-4
  GI50: > 100 µM (inactive)
OVCAR-5
  GI50: > 75.7 µM (inactive)
OVCAR-8
  GI50: 25.5 µM (inactive)
PC-3
  GI50: 75 µM (inactive)
RPMI-8226
  GI50: 19.6 µM (inactive)
RXF 393
  GI50: > 100 µM (inactive)
SF-268
  GI50: 48.1 µM (inactive)
SF-295
  GI50: 47.6 µM (inactive)
SF-539
  GI50: > 95.5 µM (inactive)
SK-MEL-28
  GI50: > 100 µM (inactive)
SK-MEL-2
  GI50: > 100 µM (inactive)
SK-MEL-5
  GI50: 28.2 µM (inactive)
SK-OV-3
  GI50: > 100 µM (inactive)
SN12C
  GI50: > 92.7 µM (inactive)
SNB-19
  GI50: 35.8 µM (inactive)
SNB-75
  GI50: > 54.6 µM (inactive)
SR
  GI50: 4.7 µM (inactive)
SW-620
  GI50: 40 µM (inactive)
T47D
  GI50: 46.6 µM (inactive)
TK-10
  GI50: > 100 µM (inactive)
U-251
  GI50: > 27.9 µM (inactive)
UACC-257
  GI50: > 67.5 µM (inactive)
UACC-62
  GI50: > 60.8 µM (inactive)
UO-31
  GI50: 50.4 µM (inactive)
